Experimental data reported in ChEMBL document CHEMBL5291721, “A preclinical secondary pharmacology resource illuminates target-adverse drug reaction associations of marketed drugs” (Nat Commun, 2023).

How the values were obtained:
Acetylcholinesterase = Acetylcholinesterase (Homo sapiens, UniProt P22303); type: functional
Adenosine receptor A3 = molecular target: T1, Adenosine receptor A3 (Homo sapiens, UniProt P0DMS8)
T1 sequence (P0DMS8 whole entry): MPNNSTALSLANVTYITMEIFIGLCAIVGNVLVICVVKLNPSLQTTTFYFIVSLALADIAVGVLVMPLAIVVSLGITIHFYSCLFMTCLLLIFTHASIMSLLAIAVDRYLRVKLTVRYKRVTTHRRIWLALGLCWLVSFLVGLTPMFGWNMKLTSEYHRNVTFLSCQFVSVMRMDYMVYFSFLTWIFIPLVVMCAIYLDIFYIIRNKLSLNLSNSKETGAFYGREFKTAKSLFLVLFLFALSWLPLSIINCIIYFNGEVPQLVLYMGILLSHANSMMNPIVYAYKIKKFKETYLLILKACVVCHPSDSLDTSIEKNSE

[1] = molecular target: T2, Alpha-1A adrenergic receptor (Homo sapiens, UniProt P35348); type: functional, cell-based
T2 sequence (P35348 whole entry): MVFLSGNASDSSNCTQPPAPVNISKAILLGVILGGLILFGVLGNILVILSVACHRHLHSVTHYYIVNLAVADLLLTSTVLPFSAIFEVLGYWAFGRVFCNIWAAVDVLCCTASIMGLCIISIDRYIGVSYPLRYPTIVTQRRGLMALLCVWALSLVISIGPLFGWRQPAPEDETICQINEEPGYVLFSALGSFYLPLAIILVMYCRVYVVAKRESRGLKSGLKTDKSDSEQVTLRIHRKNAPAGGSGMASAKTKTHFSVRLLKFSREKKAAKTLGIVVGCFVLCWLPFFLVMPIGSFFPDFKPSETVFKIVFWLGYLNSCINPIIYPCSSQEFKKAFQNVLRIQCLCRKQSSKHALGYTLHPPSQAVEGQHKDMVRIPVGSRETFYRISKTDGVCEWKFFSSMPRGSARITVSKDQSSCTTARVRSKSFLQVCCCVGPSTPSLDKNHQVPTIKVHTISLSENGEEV

[2] = molecular target: T3, Muscarinic acetylcholine receptor M2 (Homo sapiens, UniProt P08172)
T3 sequence (P08172 whole entry): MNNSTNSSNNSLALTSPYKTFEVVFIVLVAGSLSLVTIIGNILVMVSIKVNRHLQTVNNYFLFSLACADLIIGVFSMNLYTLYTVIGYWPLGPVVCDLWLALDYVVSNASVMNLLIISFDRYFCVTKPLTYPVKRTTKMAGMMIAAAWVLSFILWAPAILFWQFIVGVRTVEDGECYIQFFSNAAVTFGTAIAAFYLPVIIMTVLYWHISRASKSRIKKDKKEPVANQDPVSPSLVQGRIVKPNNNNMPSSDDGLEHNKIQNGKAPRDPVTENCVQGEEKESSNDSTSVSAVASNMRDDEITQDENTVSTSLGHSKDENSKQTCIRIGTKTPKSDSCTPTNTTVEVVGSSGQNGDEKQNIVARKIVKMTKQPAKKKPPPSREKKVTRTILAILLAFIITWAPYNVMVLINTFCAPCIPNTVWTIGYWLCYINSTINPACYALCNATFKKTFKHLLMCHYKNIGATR

Prothrombin = Prothrombin (Homo sapiens, UniProt P00734); type: functional
Histamine H3 receptor = Histamine H3 receptor (Homo sapiens, UniProt Q9Y5N1)
Mu-type opioid receptor = Mu-type opioid receptor (Homo sapiens, UniProt P35372)
[3] = molecular target: cGMP-inhibited 3',5'-cyclic phosphodiesterase 3A (Homo sapiens, UniProt Q14432); type: functional
Progesterone receptor = molecular target: T4, Progesterone receptor (Homo sapiens, UniProt P06401)
T4 sequence (P06401 whole entry): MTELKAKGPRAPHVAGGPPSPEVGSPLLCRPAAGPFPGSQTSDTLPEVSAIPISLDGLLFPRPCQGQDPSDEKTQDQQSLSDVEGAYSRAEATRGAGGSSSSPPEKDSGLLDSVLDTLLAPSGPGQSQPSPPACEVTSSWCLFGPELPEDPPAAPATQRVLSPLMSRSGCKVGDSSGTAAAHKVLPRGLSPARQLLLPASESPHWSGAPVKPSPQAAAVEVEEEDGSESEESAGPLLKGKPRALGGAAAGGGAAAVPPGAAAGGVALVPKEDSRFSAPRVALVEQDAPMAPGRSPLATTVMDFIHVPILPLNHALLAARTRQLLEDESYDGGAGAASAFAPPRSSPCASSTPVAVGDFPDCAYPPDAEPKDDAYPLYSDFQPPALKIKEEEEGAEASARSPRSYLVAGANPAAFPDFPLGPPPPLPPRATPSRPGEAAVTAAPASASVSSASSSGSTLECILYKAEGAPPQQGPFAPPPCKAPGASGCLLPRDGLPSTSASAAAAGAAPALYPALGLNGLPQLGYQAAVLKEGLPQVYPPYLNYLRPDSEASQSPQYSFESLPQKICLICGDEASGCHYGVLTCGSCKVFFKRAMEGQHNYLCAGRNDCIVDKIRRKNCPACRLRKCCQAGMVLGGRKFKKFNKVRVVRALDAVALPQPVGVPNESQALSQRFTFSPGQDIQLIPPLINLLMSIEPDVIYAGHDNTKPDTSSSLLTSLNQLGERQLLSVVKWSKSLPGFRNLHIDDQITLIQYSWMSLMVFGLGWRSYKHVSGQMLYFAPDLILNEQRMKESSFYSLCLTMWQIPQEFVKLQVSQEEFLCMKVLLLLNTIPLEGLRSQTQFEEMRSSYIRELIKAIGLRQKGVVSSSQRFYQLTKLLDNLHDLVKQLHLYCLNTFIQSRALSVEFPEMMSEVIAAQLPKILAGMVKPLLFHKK

[4] = molecular target: T5, Prostaglandin G/H synthase 1 (Homo sapiens, UniProt P23219); type: functional
[5] = molecular target: T5, Prostaglandin G/H synthase 1; type: functional; remark: listed apart in the source
[6] = molecular target: Sodium-dependent dopamine transporter (Homo sapiens, UniProt Q01959)
Further: assay procedure not described here.

Chain of Mu-type opioid receptor (P35372 whole entry): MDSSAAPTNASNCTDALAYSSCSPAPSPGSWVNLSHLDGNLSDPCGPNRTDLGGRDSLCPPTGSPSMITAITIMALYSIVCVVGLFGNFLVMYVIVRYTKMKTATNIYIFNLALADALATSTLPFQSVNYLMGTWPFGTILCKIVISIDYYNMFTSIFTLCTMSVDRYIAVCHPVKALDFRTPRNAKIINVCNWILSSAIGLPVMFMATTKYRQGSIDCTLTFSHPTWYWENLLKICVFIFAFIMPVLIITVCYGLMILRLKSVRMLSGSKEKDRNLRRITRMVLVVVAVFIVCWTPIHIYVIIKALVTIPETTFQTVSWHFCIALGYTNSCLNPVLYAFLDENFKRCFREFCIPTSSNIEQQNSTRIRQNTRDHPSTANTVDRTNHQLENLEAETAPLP
Chain of Sodium-dependent dopamine transporter (Q01959 whole entry): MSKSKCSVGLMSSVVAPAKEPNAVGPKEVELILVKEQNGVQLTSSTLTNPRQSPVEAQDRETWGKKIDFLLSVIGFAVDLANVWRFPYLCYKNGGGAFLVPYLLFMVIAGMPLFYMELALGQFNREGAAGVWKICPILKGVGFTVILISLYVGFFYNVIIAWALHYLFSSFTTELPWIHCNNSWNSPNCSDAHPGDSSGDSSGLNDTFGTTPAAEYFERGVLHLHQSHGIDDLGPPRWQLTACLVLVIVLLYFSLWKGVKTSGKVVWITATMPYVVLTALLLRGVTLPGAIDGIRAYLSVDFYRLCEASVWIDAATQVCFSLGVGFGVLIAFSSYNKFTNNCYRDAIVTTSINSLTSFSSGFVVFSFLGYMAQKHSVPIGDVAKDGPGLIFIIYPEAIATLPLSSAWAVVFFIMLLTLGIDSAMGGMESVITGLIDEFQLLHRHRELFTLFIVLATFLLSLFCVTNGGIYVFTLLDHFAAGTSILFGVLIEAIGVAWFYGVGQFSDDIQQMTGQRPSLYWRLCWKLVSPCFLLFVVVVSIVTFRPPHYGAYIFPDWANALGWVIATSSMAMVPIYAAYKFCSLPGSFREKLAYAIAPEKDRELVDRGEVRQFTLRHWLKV
T5 sequence (P23219 whole entry): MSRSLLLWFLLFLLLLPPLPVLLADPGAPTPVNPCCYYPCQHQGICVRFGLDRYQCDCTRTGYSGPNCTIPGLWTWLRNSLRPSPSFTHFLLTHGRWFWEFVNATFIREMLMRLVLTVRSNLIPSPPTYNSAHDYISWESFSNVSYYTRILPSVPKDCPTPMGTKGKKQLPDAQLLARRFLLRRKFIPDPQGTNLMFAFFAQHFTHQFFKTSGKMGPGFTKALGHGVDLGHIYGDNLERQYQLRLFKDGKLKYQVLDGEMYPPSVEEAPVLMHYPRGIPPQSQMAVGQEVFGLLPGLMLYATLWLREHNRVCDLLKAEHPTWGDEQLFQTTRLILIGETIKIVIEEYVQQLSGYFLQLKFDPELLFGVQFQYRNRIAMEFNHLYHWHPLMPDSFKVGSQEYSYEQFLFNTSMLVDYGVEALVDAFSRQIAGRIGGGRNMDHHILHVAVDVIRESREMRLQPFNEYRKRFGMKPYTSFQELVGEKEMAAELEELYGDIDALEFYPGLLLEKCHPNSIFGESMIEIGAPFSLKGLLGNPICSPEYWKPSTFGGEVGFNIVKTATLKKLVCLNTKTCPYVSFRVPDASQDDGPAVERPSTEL
Chain of Acetylcholinesterase (P22303 whole entry): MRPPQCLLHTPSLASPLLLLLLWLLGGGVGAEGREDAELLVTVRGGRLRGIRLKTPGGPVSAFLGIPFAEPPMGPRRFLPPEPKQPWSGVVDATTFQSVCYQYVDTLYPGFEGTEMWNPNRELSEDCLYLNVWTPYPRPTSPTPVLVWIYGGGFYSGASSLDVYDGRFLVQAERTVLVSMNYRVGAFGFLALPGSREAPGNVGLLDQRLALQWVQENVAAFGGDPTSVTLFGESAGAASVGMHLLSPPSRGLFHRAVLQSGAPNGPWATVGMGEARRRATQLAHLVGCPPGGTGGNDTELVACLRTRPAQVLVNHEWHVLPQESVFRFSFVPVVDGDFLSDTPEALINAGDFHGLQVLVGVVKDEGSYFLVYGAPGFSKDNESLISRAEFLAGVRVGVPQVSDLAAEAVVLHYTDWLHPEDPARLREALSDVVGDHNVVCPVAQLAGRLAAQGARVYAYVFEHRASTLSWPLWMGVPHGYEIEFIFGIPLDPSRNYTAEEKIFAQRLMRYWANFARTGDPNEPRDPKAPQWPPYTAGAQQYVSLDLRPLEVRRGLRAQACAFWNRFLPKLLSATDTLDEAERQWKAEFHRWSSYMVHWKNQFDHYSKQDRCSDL
Chain of cGMP-inhibited 3',5'-cyclic phosphodiesterase 3A (Q14432 whole entry): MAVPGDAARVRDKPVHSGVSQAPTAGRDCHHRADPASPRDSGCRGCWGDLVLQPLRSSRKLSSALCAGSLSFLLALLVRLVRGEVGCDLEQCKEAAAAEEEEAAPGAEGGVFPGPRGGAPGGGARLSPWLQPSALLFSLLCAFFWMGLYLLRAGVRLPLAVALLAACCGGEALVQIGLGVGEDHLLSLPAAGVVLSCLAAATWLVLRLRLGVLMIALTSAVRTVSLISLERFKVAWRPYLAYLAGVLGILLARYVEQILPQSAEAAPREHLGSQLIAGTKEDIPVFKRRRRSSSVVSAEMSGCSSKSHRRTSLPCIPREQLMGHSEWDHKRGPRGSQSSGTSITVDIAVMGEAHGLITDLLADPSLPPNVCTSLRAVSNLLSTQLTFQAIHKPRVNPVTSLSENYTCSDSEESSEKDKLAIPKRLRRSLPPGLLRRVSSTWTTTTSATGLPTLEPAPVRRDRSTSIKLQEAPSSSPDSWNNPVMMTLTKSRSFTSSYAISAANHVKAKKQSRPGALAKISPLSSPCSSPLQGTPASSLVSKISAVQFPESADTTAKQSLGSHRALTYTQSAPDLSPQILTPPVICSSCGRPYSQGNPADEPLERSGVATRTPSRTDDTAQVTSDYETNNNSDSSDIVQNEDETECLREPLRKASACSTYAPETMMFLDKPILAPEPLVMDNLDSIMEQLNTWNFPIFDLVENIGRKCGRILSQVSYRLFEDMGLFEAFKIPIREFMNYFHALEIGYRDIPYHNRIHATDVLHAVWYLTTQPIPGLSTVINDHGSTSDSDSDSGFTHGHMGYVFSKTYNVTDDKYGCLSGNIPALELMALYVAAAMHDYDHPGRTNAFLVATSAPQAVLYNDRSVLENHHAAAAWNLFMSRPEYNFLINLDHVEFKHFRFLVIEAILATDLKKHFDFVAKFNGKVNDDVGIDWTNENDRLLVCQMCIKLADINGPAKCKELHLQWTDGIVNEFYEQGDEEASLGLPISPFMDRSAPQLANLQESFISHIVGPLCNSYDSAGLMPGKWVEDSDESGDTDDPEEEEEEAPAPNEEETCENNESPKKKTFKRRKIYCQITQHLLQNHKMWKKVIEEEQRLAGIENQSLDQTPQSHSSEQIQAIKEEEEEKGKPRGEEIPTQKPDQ
Chain of Histamine H3 receptor (Q9Y5N1 whole entry): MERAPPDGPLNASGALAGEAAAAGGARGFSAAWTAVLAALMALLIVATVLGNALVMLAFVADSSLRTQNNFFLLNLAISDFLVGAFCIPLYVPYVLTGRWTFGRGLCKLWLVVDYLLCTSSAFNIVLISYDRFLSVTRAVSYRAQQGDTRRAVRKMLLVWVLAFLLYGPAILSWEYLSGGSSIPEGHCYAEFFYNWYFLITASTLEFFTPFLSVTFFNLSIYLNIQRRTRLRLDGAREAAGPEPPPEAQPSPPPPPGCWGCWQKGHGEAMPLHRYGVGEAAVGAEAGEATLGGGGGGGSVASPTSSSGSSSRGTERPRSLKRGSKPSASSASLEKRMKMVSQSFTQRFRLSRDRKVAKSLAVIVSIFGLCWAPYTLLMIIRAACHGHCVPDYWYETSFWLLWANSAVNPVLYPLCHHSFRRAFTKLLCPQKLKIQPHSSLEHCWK

| SMILES | AC50 (Acetylcholinesterase) [µM] | AC50 (Adenosine receptor A3) [µM] | AC50 [1] [µM] | AC50 [2] [µM] | AC50 (Prothrombin) [µM] | AC50 (Histamine H3 receptor) [µM] | AC50 (Mu-type opioid receptor) [µM] | AC50 [3] [µM] | AC50 (Progesterone receptor) [µM] | AC50 [4] [µM] | AC50 [5] [µM] | AC50 [6] [µM] |
| --- | --- | --- | --- | --- | --- | --- | --- | --- | --- | --- | --- | --- |
| C[C@H]1C[C@H]2[C@@H]3CCC4=CC(=O)C=C[C@]4(C)[C@@]3(F)[C@@H](O)C[C@]2(C)[C@@]1(O)C(=O)CO [BETAMETHASONE] | > 30 | > 30 | > 30 | > 30 | > 30 | > 30 | > 30 | > 30 | 11.4 | > 30 | > 30 | > 30 |
| O=NN(CCCl)C(=O)NCCCl [CARMUSTINE] | > 30 | – | > 30 | > 30 | – | > 30 | > 30 | – | – | – | – | > 30 |
| C[C@@H]1O[C@@H](O[C@H]2C[C@@H](O)[C@]3(CO)[C@H]4[C@H](O)C[C@]5(C)[C@@H](C6=CC(=O)OC6)CC[C@]5(O)[C@@H]4CC[C@]3(O)C2)[C@H](O)[C@H](O)[C@H]1O [OUABAIN] | > 30 | > 30 | > 30 | > 30 | > 30 | > 30 | > 30 | > 30 | > 30 | > 30 | > 30 | > 30 |
| C#C[C@]1(OC(C)=O)CC[C@H]2[C@@H]3CCC4=CC(=O)CC[C@@H]4[C@H]3CC[C@@]21C [NORETHINDRONE ACETATE] | > 30 | 0.838 | > 30 | 9.44 | > 30 | > 30 | > 30 | > 30 | 0.033 | > 30 | > 30 | > 30 |
| CC(CN(C)C)CN1c2ccccc2CCc2ccccc21 (centres undefined) [TRIMIPRAMINE] | > 30 | > 30 | – | – | > 30 | > 30 | 5.7 | > 30 | > 30 | > 30 | > 30 | 10.9 |
| N=C(N)NC(=O)c1nc(Cl)c(N)nc1N [AMILORIDE] | > 30 | – | > 30 | > 30 | > 30 | > 30 | > 30 | > 30 | > 30 | > 30 | > 30 | > 30 |
| CO[C@H]1/C=C/O[C@@]2(C)Oc3c(C)c(O)c4c(c3C2=O)C2=NC3(CCN(CC(C)C)CC3)NC2=C(NC(=O)/C(C)=C\C=C\[C@H](C)[C@H](O)[C@@H](C)[C@@H](O)[C@@H](C)[C@H](OC(C)=O)[C@@H]1C)C4=O [RIFABUTIN] | > 30 | > 30 | > 30 | > 30 | > 30 | > 30 | > 30 | > 30 | > 30 | 17.7 | 17.4 | > 30 |
| OCc1ccccc1 [BENZYL ALCOHOL] | > 30 | > 30 | > 30 | > 30 | > 30 | > 30 | > 30 | > 30 | > 30 | > 30 | > 30 | > 30 |
| CC1=C(/C=C/C(C)=C/C=C/C(C)=C\C(=O)O)C(C)(C)CCC1 [ISOTRETINOIN] | > 30 | > 30 | > 30 | > 30 | > 30 | > 30 | > 30 | > 30 | > 30 | – | – | > 30 |
| CC1=C(/C=C/C(C)=C\C=C\C(C)=C\C(=O)O)C(C)(C)CCC1 [ALITRETINOIN] | > 30 | > 30 | > 30 | > 30 | > 30 | > 30 | > 30 | > 30 | > 30 | – | – | > 30 |
| CC(C)N1CCN(c2ccc(OCC3COC(Cn4cncn4)(c4ccc(Cl)cc4Cl)O3)cc2)CC1 (centres undefined) [TERCONAZOLE] | 16.5 | > 30 | > 30 | 10.9 | > 30 | 0.096 | > 30 | > 30 | 18.7 | > 30 | > 30 | 7.14 |
| Cc1ccc(Cl)c(Nc2ccccc2C(=O)O)c1Cl [MECLOFENAMIC ACID] | > 30 | 29.6 | > 30 | > 30 | > 30 | > 30 | > 30 | > 30 | > 30 | 0.0142 | 0.0171 | > 30 |
| N[C@@H](Cc1ccc(N(CCCl)CCCl)cc1)C(=O)O | 20 | > 30 | > 30 | 13.6 | > 30 | > 30 | 20.6 | > 30 | > 30 | > 30 | 6.82 | 16.9 |
| Oc1ccc(OCc2ccccc2)cc1 [MONOBENZONE] | > 30 | > 30 | > 30 | > 30 | > 30 | > 30 | > 30 | > 30 | > 30 | 11 | 7.88 | 8.56 |
| NS(=O)(=O)c1cc2c(cc1Cl)NC(C(Cl)Cl)NS2(=O)=O (centres undefined) [TRICHLORMETHIAZIDE] | > 30 | > 30 | > 30 | > 30 | > 30 | > 30 | > 30 | > 30 | > 30 | > 30 | > 30 | > 30 |
| COC(=O)Nc1nc2cc(C(=O)c3ccc(F)cc3)ccc2[nH]1 [FLUBENDAZOLE] | > 30 | 8.69 | > 30 | > 30 | > 30 | > 30 | > 30 | > 30 | > 30 | 2.17 | > 30 | > 30 |
